In US11911396B2, “Use of compound in preparation of drug for treating cerebral small vessel disease” (GUANGZHOU CELLPROTEK PHARMACEUTICAL CO., LTD, priority 2017, dated 2024):

What was measured:
IL-6 = test: Western blot of IL-6 in prefrontal cortex brain tissue, acute hypobaric hypoxia model; format: in vivo, cynomolgus monkeys; settings: FIGS. 3A and 3B
Text: FIG. 3. […] A. Protein expression of inflammatory factors IL-6, IL-1β and TNF-α in the brain tissue of the prefrontal cortex of cynomolgus monkeys; B. Statistics of protein relative gray scan values. NN: Normobaric Normoxia group (N=3); HH: Hypobaric Hypoxia group (N=3); HH+Triol: Hypobaric Hypoxia with Triol administration group (N=3); HH+PROG: Hypobaric Hypoxia with control drug administration group (N=3). The gray value was obtained by scanning with Image Lab software, and the relative value was obtained after normalizing with α-Tubulin. One-way ANOVA analysis and Dunnutt's t test were used to perform statistical tests, and in the latter each group was compared with the HH group, *, p<0.05; **, p<0.01.
(§1) 1) Preparation of protein samples (see the instructions of M-PER protein lysate): After the cells had been processed for the specified time, the medium was aspirated and then washed with 4° C. pre-chilled PBS (0.01M pH7.2˜7.3) for 3 times. […] 2) BCA protein quantification (see the instructions of BCA protein quantification kit): corresponding components were added to a 96-well detection plate by the ratio of quantification reagent A solution:B solution:ddH2O:protein=100:2:7.5:5, and albumin standards diluted in gradient concentration were added to draw a standard curve. […] After the reaction, the absorbance of each well at a wavelength of 562 nm was detected using a microplate reader. […]

Iba-1 in microglia BV2 = test: Western blot of Iba-1 in BV2 cells stimulated with hemoglobin and hypoxia, with or without CD163 RNA interference; format: cell-based; settings: 10 μM Triol, 20 μM hemoglobin and 1% hypoxia for 6 hours
Protocol: FIG. 7. […] According to the manufacturer's instructions, RNAiMAX was used to transfect CD163 No. 01 and scrambled interference fragment NC respectively to BV2 cells, BV2 cell culture medium was then added with or without 10 μM Triol, and BV2 cells were stimulated with 20 μM hemoglobin and 1% hypoxia for 6 hours, after which protein samples were collected, and the expression of microglial activation markers Iba-1 and CD11b was detected by Western blot.
as §1, with “times. 150-200 ul of M-PER protein lysate mixed with protease inhibitor (PMSF 100×) was added, which was lysed on ice for 10 minutes to fully lyse the cells.” for “times.”

C[C@@]12CCCC1C1C[C@@H](O)[C@@]3(O)C[C@@H](O)CC[C@]3(C)C1CC2 (stereo partly drawn) [Triol, 5α-androst-3β,5,6β-triol]
expression level of IL-6 (IL-6): significantly reduced
effect on the up-regulation of Iba-1 in hypoxia and hemoglobin-activated microglia cells (Iba-1 in microglia BV2; without CD163 interference): inhibitory effect
inhibitory effect on the up-regulation of Iba-1 after interfering CD163 (Iba-1 in microglia BV2; CD163 RNA interference, FIG. 7): cancelled
